Results published in paper PMC12396409, “Screening and hit evaluation of a microbial metabolite library against the pathogenic Plasmodium falciparum and Toxoplasma gondii parasites” (International Journal for Parasitology: Drugs and Drug …, 2025).
Like-named read-outs stand apart in the source and are kept apart here. *1 amine or outer side, *2 acyl side, *3 side chain or, on linkers, in order; H or OH if unused. Where a SMILES comes first, the peptide text is derived from it. Bridges are numbered along the chain shown (N, C = ends). [ ]: non-standard residue; d: D form. hTyr(3S-OH,4S-OH,3'-OSO3H) = N[C@H](C(=O)O)[C@H](O)[C@@H](O)c1ccc(O)c(OS(=O)(=O)O)c1; Orn(4R-OH,5R-OH) = O=C([C@H](C[C@@H](O)[C@@H](O)N[*:3])N[*:1])[*:2]; Pro(3S-OH,4S-Me) = C[C@H]1CN[C@H](C(=O)O)[C@H]1O; Gln(3R-OH) = NC(=O)C[C@@H](O)[C@H](N)C(=O)O; Hyp = O=C(O)[C@@H]1C[C@@H](O)CN1

Legend:
[1] = tested on: P. falciparum 3D7 parasites; test: P. falciparum growth inhibition assay, 1-cycle (72 h treatment), SYBR DNA staining (library screen at 2 μg/mL and dose-response); type: cell-based, Plasmodium falciparum; conditions: for activity at 2 µg/mL: Plasmodium falciparum, 3D7, 72 h, parasite screen 2 μg/mL
[2] = tested on: T. gondii RH strain (RH-Tub-eYFP) tachyzoites; test: microbe, parasite or virus in culture; type: cell-based, Toxoplasma gondii; conditions: 72 h, 72 h; for percent parasite growth at 2 µg/mL: Toxoplasma gondii, parasite screen 2 μg/mL
[3] = tested on: P. falciparum 3D7 parasites; test: P. falciparum growth inhibition assay, 2-cycle (120 h treatment), delayed-death screen and dose-response; type: cell-based, Plasmodium falciparum; conditions: for activity at 2 µg/mL: Plasmodium falciparum, 3D7, 120 h, parasite screen 2 μg/mL
[4] = library screen at 2 μg/mL, 72 h, % growth, replicate 1
[5] = library screen at 2 μg/mL, 72 h, % growth, replicate 2
[6] = library screen at 2 μg/mL, % growth, replicate 1
[7] = library screen at 2 μg/mL, % growth, replicate 2
[8] = library screen at 2 μg/mL, 120 h, % growth, replicate 1
[9] = library screen at 2 μg/mL, 120 h, % growth, replicate 2
[10] = P. falciparum, 72 h, screen at 2 μg/mL, replicate 1
[11] = P. falciparum, 72 h, screen at 2 μg/mL, replicate 2
[12] = T. gondii, screen at 2 μg/mL, replicate 1
[13] = T. gondii, screen at 2 μg/mL, replicate 2
[14] = P. falciparum, 120 h, screen at 2 μg/mL, replicate 1
[15] = P. falciparum, 120 h, screen at 2 μg/mL, replicate 2

Row | Structure (SMILES) | Pf_72h_%Growth_Rep1 [1, 4] [%] | Pf_72h_%Growth_Rep2 [1, 5] [%] | Tg_72h_%Growth_Rep1 [2, 6] [%] | Tg_72h_%Growth_Rep2 [2, 7] [%] | Pf_120h_%Growth_Rep1 [3, 8] [%] | Pf_120h_%Growth_Rep2 [3, 9] [%] | further results
1 | COC(=O)[C@]12Oc3cc(C)c(-c4c(C)cc5c(c4O)C(=O)C4=C(O)CC[C@H](O)[C@@]4(C(=O)OC)O5)c(O)c3C(=O)C1=C(O)CC[C@@H]2O [Rugulotrosin A] |  |  |  |  |  |  | activity at 2 µg/mL ([1]; P. falciparum, 72 h, % growth, replicate 1, read-out: Pf_72h_%Growth_Rep1): 69.8%; activity at 2 µg/mL ([1]; P. falciparum, 72 h, % growth, replicate 2, read-out: Pf_72h_%Growth_Rep2): 106%; percent parasite growth at 2 µg/mL ([2]; T. gondii, % growth, replicate 1, read-out: Tg_72h_%Growth_Rep1): 118%; percent parasite growth at 2 µg/mL ([2]; T. gondii, % growth, replicate 2, read-out: Tg_72h_%Growth_Rep2): 86.1%; activity at 2 µg/mL ([3]; P. falciparum, 120 h, % growth, replicate 1, read-out: Pf_120h_%Growth_Rep1): 69.8%; activity at 2 µg/mL ([3]; P. falciparum, 120 h, % growth, replicate 2, read-out: Pf_120h_%Growth_Rep2): 107%
2 | C[C@@H](O)[C@@H]1NC(=O)[C@@H](N)C[C@@H](O)[C@@H](O)NC(=O)[C@@H]2[C@@H](O)[C@@H](C)CN2C(=O)[C@H]([C@H](O)CC(N)=O)NC(=O)[C@H]([C@H](O)[C@@H](O)c2ccc(O)c(OS(=O)(=O)O)c2)NC(=O)[C@@H]2C[C@@H](O)CN2C1=O [FR 179642] (H-[Orn(4R-OH,5R-OH)]T[Hyp][hTyr(3S-OH,4S-OH,3'-OSO3H)][Gln(3R-OH)][Pro(3S-OH,4S-Me)]; lactam 1-C) | 86.67 | 86.11 | 133.49 | 86.61 | 98.57 | 95.35 | 
3 | CO[C@H]1C[C@H](O[C@@H]2/C(C)=C/C[C@@H]3C[C@@H](C[C@]4(C=C[C@H](C)[C@@H](C5CCCCC5)O4)O3)OC(=O)[C@@H]3C=C(C)[C@@H](O)[C@H]4OC/C(=C\C=C\[C@@H]2C)[C@]43O)O[C@@H](C)[C@@H]1O [Doramectin monosaccharide] | 77.72 | 82.97 | 100.60 | 107.16 | 94.58 | 82.00 | 
4 | C=C[C@@](C)(CCC=C(C)C)c1ccc2c3c(c[nH]c13)C[C@@H](CO)NC(=O)[C@H](C(C)C)N2C [Teleocidin A1] |  |  |  |  |  |  | Pf_72h_%Growth_Rep1 [1, 10]: 6.74%; Pf_72h_%Growth_Rep2 [1, 11]: -5.43%; Tg_72h_%Growth_Rep1 [2, 12]: 75.89%; Tg_72h_%Growth_Rep2 [2, 13]: 83.10%; Pf_120h_%Growth_Rep1 [3, 14]: 8.14%; Pf_120h_%Growth_Rep2 [3, 15]: 11.61%
5 | CN[C@H]1C(=O)N[C@@H]2Cc3ccc(cc3)Oc3cc4cc(c3O[C@@H]3O[C@H](C(=O)O)[C@@H](O)[C@H](O)[C@H]3NC(=O)CCCCCCCCC(C)C)Oc3ccc(cc3Cl)[C@@H](O)[C@@H]3NC(=O)[C@H](NC(=O)[C@@H]4NC(=O)[C@@H](NC2=O)c2cc(cc(O)c2Cl)Oc2cc1ccc2O)c1ccc(O)c(c1)-c1c(O[C@H]2O[C@H](CO)[C@@H](O)[C@H](O)[C@@H]2O)cc(O)cc1[C@@H](C(=O)NCCCN(C)C)NC3=O [Dalbavancin] |  |  |  |  |  |  | Pf_72h_%Growth_Rep1 [1, 10]: 84.83%; Pf_72h_%Growth_Rep2 [1, 11]: 84.70%; Tg_72h_%Growth_Rep1 [2, 12]: 148.88%; Tg_72h_%Growth_Rep2 [2, 13]: 101.28%; Pf_120h_%Growth_Rep1 [3, 14]: 61.95%; Pf_120h_%Growth_Rep2 [3, 15]: 91.53%
6 | COC1C=CC=C(C)C(=O)NC2=CC(=O)C=C(C2=O)C(OC)C(C)CC(OC)C(OC)C(C)C=C(C)C1OC(N)=O (stereo not drawn) [BIA-H1036] |  |  |  |  |  |  | Pf_72h_%Growth_Rep1 ([1]; P. falciparum 3D7, 72 h, library screen at 2 μg/mL, % growth, replicate 1): 51.92%; Pf_72h_%Growth_Rep2 ([1]; P. falciparum 3D7, 72 h, library screen at 2 μg/mL, % growth, replicate 2): 44.34%; Tg_72h_%Growth_Rep1 ([2]; T. gondii RH, library screen at 2 μg/mL, % growth, replicate 1): 133.21%; Tg_72h_%Growth_Rep2 ([2]; T. gondii RH, library screen at 2 μg/mL, % growth, replicate 2): 80.30%; Pf_120h_%Growth_Rep1 ([3]; P. falciparum 3D7, 120 h, library screen at 2 μg/mL, % growth, replicate 1): 68.16%; Pf_120h_%Growth_Rep2 ([3]; P. falciparum 3D7, 120 h, library screen at 2 μg/mL, % growth, replicate 2): 41.77%
7 | COC1/C=C\C=C(/C)C(=O)NC2=CC(=O)C(NCCN(C)C)=C(C[C@@H](C)C[C@H](OC)[C@H](O)[C@@H](C)/C=C(\C)[C@@H]1OC(N)=O)C2=O (stereo partly drawn) | 11.89 | -0.93 | -1.12 | -0.16 | 10.33 | 2.04 | 
8 | Cc1c2c(c(O)c3c(O)ccc(Cl)c13)C(=O)[C@]1(O)C(O)=C(C(N)=O)C(=O)[C@@H](N(C)C)[C@@H]1C2.Cl [Anhydrochlortetracycline hydrochloride] | 86.52 | 88.12 | 107.44 | 94.77 | 62.00 | 93.26 | 
9 | CN(C)[C@H]1C(O)=C(C(N)=O)C(=O)[C@@]2(O)C(O)=C3C(=O)c4c(O)ccc(Cl)c4[C@@](C)(O)[C@H]3C[C@@H]12.Cl [Epichlortetracycline hydrochloride] | 82.03 | 85.38 | 92.54 | 103.55 | 77.41 | 79.95 | 
